Source: patent US20080139386A1 (priority 2004, published 2008)
Like-named read-outs stand apart in the source and are kept apart here.

Test system: Pyricularia oryzae
Type: in vivo
Settings: rice seedlings cultivar Tai-Nong 67, protective, inoculated next day, assessed after six days

SMILES	Efficacy in % of the untreated control (4 ppm active compound in the spray liquor) [%]	Efficacy in % of the untreated control (1 ppm active compound in the spray liquor) [%]	Efficacy in % of the untreated control (16 ppm active compound in the spray liquor) [%]
CC1CCN(c2c(-c3c(F)cc(F)cc3F)c(Cl)nc3ncnn23)CC1 [compound I, 5-chloro-7-(4-methylpiperidin-1-yl)-6-(2,4,6-trifluorophenyl)-[1,2,4]triazolo[1,5-a]pyrimidine]	31	–	–
O=C(Nc1ccccc1)N(Cc1ccc(Cl)cc1)C1CCCC1 [compound II, 1-(4-chlorobenzyl)-1-cyclopentyl-3-phenylurea]	–	0	0
